Calls of active or inactive are those of the source. No cut-off for these calls is given here.

This passage reports inhibition results from ChEMBL document CHEMBL3576804, “Novel Potent Orthosteric Antagonist of ASIC1a Prevents NMDAR-Dependent LTP Induction” (J Med Chem, 2015).

Holding throughout (assay type): cell-based
Assay [1] deals with T1, Acid-sensing ion channel 1 (Homo sapiens) (UniProt P78348).
T1 sequence (whole entry): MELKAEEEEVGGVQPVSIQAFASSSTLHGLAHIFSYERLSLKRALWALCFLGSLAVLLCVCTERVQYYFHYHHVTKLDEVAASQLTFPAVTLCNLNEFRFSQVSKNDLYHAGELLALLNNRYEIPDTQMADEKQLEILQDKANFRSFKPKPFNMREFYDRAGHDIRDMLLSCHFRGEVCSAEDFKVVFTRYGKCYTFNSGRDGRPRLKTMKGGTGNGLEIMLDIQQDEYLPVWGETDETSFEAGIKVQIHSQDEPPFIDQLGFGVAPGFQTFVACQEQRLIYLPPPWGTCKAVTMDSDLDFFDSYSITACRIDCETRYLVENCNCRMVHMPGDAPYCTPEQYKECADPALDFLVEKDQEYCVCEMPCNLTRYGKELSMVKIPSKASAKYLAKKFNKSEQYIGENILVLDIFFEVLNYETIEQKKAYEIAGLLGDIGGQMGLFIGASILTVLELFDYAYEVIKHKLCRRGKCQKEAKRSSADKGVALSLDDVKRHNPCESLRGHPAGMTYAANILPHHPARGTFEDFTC
In words: Inhibition of human ASIC1a endogenously expressed in HEK293 cells clamped at -100 mV gated ionic current at 100 uM at pH 5.0 by standard whole cell patch clamp assay. On the technique in general: The patch-clamp technique gives a direct electrical read-out from membranes.

Assay [2] has as its target T1, Acid-sensing ion channel 1 (Homo sapiens). In words: Inhibition of human ASIC1a endogenously expressed in HEK293 cells clamped at -100 mV gated ionic current at 100 uM at pH 6.7 by standard whole cell patch clamp assay.
The target is the same in assay [3]. In words: Inhibition of human ASIC1a endogenously expressed in HEK293 cells clamped at -100 mV gated ionic current at 10 uM at pH 6.7 by standard whole cell patch clamp assay.
For assay [4] the target is unchanged. Kind of assay: Inhibition of human ASIC1a endogenously expressed in HEK293 cells clamped at -100 mV gated ionic current at 10 uM at pH 5.0 by standard whole cell patch clamp assay.
Assay [5] has the same target. In words: Inhibition of human ASIC1a endogenously expressed in HEK293 cells clamped at -100 mV gated ionic current at 10 uM in presence of cellular membrane depolarization by standard whole cell patch clamp assay.
Assay [6] has the same target. In words: Inhibition of human ASIC1a endogenously expressed in HEK293 cells clamped at -100 mV gated ionic current at 10 uM by standard whole cell patch clamp assay.
The target is the same in assay [7]. Kind of assay: Inhibition of human ASIC1a endogenously expressed in HEK293 cells clamped at -20 mV gated ionic current at 10 uM by standard whole cell patch clamp assay.

By inhibition is commonly meant the drop in the measured response relative to a control, in per cent. As to `CCN(CC)c1ccc2cc(C(=N)N)c(=O)oc2c1`, the figures for the inhibition in assay [1] and in assay [2] were 41% and 49%, respectively.
As to `CN(Cc1ccccc1)c1ccc2cc(C(=N)N)c(=O)oc2c1`, the inhibition in assay [1] was 36.6%; in assay [3], 42.9%; in assay [4], 79.2%; in assay [2], 22.3%.
Regarding `N=C(N)NC(=O)c1nc(Cl)c(N)nc1N`, the inhibition entry in assay [5] is “inactive”. In addition, the results for the inhibition in assay [6] and in assay [7] were 41.3% and 60.7%, respectively.
